From US5780433A (priority 1996, dated 1998)
Values joined by “and” are separate entries in the source; they are usually repeats but may differ in a detail not shown here. Identical values can stand only once. “Also recorded” adds a separate entry of the source.

How the values were obtained:
[1] = system: norepinephrine release, hippocampal slice preparations; conditions: cited from earlier work
[2] = system: nicotine-stimulated [3H]-dopamine release from rat striatal synaptosomes; conditions: read-out: EC50, increase of [3H]-dopamine release; cited from earlier work
[3] = system: nicotine-stimulated norepinephrine release, hippocampal synaptosomes; conditions: cited from earlier work
[4] = system: nicotine-stimulated [3H]-dopamine release from rat striatal synaptosomes; format: cell-based
[5] = target: α3β2 nAChRs expressed in Xenopus oocytes (Rattus norvegicus, UniProt P04757+P12390); conditions: read-out: IC50, block of α3β2 nAChRs; cited from earlier work
Sequence of α3β2 nAChRs expressed in Xenopus oocytes (P04757 26-499 limits assumed): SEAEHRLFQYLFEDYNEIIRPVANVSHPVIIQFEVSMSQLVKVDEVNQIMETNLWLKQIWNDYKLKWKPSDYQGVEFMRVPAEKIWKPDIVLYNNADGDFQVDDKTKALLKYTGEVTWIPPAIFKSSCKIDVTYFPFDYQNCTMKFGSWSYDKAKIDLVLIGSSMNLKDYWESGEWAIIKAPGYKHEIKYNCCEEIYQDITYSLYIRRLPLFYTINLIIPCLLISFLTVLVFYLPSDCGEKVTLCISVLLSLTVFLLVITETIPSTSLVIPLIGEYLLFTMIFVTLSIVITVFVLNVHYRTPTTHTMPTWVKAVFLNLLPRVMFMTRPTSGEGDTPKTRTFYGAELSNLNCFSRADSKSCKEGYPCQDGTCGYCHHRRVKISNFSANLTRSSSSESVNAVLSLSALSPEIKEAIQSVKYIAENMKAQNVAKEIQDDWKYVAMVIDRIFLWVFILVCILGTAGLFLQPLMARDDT
Sequence of α3β2 nAChRs expressed in Xenopus oocytes (P12390 25-500 limits assumed): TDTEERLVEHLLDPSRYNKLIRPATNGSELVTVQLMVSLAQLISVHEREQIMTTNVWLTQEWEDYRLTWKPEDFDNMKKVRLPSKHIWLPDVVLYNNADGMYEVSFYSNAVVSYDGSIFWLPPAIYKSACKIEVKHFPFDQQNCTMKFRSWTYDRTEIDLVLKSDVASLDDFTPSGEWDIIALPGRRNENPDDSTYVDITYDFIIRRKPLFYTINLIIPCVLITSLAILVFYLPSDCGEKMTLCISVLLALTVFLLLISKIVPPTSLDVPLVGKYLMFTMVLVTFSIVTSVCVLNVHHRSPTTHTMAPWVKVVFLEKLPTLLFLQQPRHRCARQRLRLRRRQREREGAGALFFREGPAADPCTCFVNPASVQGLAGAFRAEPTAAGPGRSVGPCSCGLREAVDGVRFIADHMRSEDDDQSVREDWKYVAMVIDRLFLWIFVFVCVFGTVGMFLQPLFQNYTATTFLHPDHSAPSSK

[6] = system: potassium-stimulated dopamine release; format: cell-based, rat
[7] = system: nicotine-stimulated norepinephrine release, hippocampal synaptosomes; format: cell-based, rat
[8] = system: other nAChR subunit combinations (α7, α4β2, α2β2, α3β4, α1β1δγ, α4β4); conditions: cited from earlier work

Compound: CN1CCCC1c1cccnc1.O=C(O)C(O)C(O)C(=O)O (single isomer, unassigned; (-)) [nicotine, (-)Nicotine hydrogen tartrate]
- norepinephrine release over baseline [1]: ~ 700%
- EC50 [2]: 0.16 µM
- EC50 [3]: 6.5 µM

Compound: CNC1(C)C2CCC(C2)C1(C)C (centres unmarked) [mecamylamine, reference compound]
- block of nicotine-stimulated dopamine release [4]: fully blocked

Compound: NC1=N[C@H](O)[C@H]2[C@H]3O[C@]4(O)O[C@@H]([C@@H](O)[C@@]2(N1)[C@@H]4O)[C@]3(O)CO [tetrodotoxin]
- block of nicotine-stimulated norepinephrine release from hippocampal slices [1]: majority
- effect on nicotine-stimulated synaptosomal release of norepinephrine [3]: not affected

Compound: α-conotoxin ImI [reference compound]
- block of nicotine-stimulated dopamine release [4]: do not block; also recorded: no effect

Compound: α-conotoxin MII
- IC50 [5]: 0.0005 µM
- effect on potassium-stimulated dopamine release [6]: no effect
- block of nicotine-stimulated norepinephrine release [7]: significant block
- block of nicotine-stimulated synaptosomal norepinephrine release [7]: do not block
- affinities for other nAChR subunit combinations relative to α3β2 [8]: two to four orders-of-magnitude higher
- discrimination between the α3/β2 and α3/β4 interface [8]: four orders-of-magnitude
- block of nicotine-evoked [3H]-dopamine release [4]: significantly blocked
- block of nicotine-stimulated [3H]-dopamine release [4]: 33% and 34% and 44% and 50%
- block of nicotine-stimulated [3H]-dopamine release (words) [4]: nonsignificant trend toward block
- block of nicotine-stimulated dopamine release [4]: blocks a fraction; also recorded: blocks a part but not all
